From patent US9163025B2, “Stable complexes of an alkaline earth metal salt of N5-methyl-tetrahydrofolic acid and a polyol” (CERBIOS-PHARMA SA, priority 2013, dated 2015)

Experiment: Accelerated stability of calcium (6S) N5-methyl-tetrahydrofolate products (HPLC related substances and assay)
Format: physicochemical
Settings: 25° C. and 40% relative humidity
Experimental: Determination of related substances of calcium (6S)—N^5-methyl-(5,6,7,8)-tetrahydrofolate by HPLC method
25±3 mg of (6S)-5-methyl-tetrahydrofolic acid calcium salt calculated on dry base were placed in a 50 ml volumetric flask and added with 320 μl of acid ascorbic solution and water until the final volume was reached. The solution was transferred in a HPLC vial and the sample injected immediately.
Analysis: 10 μl of the sample solution were Injected, the chromatogram recorded (analytical wavelength 280±16 nm) and the peak response measured.
the liquid chromatograph was equipped with a Hypersil ODS column (length 250 mm, ID 4 mm, particle size 5 μm). The column was coupled with a diode array detector for the detection wavelength of 280±16 nm
Determination of assay by HPLC of calcium (6RS) and (6S) N^5-methyl-tetrahydrofolate
75-85 mg of sample were dissolved in 200 ml water within a 250 ml volumetric flask. 1 ml of the ascorbic acid solution was added and dilute to 250 ml with water. A total of three sample solutions were prepared.
The HPLC system was verified and calibrated by injecting the standard solutions. Once each of the three prepared sample solutions were injected followed by one standard solution as calibration control.
The liquid chromatograph was equipped with an analytical column such ACE 5 C18, 250 mm×2.1 mm, with particle size 5 μm.
acetonitrile 12%, phosphate buffer pH 6.5 80%, methanol+2-mercaptoethanol 8%.
column temperature: 25° C., isocratic mode, flow rate: 0.41 ml/min, injection volume: 5 μl, run time: 13.5 min, analytical wavelength: 290 nm.
The stability of the complexes according to the present invention prepared by spray-drying or lyophilization as described in examples 5 and 7 was tested in comparison with the stability of (6S)—N^5-methyl-tetrahydrofolate calcium salt alone. Preparations obtained through different technologies, such as evaporation of the solvent from the solution, as reported in examples 2, 3 and 4, were also assessed for stability. Accelarated stability experiments at 25° C. and 40% relative humidity were carried out.

For CN1c2c(nc(N)[nH]c2=O)NC[C@@H]1CNc1ccc(C(=O)N[C@@H](CCC(=O)[O-])C(=O)[O-])cc1.[Ca+2] [Product 5MeTHF, (6S)—N^5-methyl-(5,6,7,8)-tetrahydrofolate calcium salt], the “Decrease of 5MeTHF % content” value (4 weeks) was −2.70%, the “Increase of D2 % content” value (4 weeks) was 1.30% and the “Decrease of 5MeTHF % content” value (12 weeks) was −2.80%. The “Increase of D2 % content” value (12 weeks) was 1.40%, the “Decrease of 5MeTHF % content” value (24 weeks) was −5.6% and the “Increase of D2 % content” value (24 weeks) was 2.3%.
